Experimental data: US20230233576A1, “ECLITASERTIB FOR USE IN TREATING CONDITIONS INVOLVING SYSTEMIC HYPERINFLAMMATORY RESPONSE” (priority 2020, published 2023)

Test system: adult participants hospitalized for severe COVID-19
Experiment: Phase 1b severe COVID-19 study: adverse events and deaths
Format: in vivo, human
Description: Safety evaluation was based on adverse events (Aes) including serious adverse events (SAEs) and adverse events of special interest (AESIs) (i.e., pregnancy, symptomatic overdose with IMP. Alanine aminotransferase [ALT] increase, and anemia), and treatment-emergent adverse events (TEAEs) leading to treatment discontinuation.
The primary focus of AE reporting was on treatment emergent adverse events (TEAEs). Treatment emergent adverse events were Aes that were not present at baseline or represented the exacerbation of a pre-existing condition during the on-treatment period (treatment-emergent period), defined as the time from the first administration of the IMP up to and including the day of last dose of study drug plus 5 days.
All adverse events were coded to a “preferred term (PT)”, “high-level term (HLT)”, “high-level group term (HLGT)”, and associated primary SOC using Medical Dictionary for Regulatory Activities (MedDRA) version 23.1.
The number and cumulative incidence rate of deaths [%] during the on-study period were computed by treatment group: number of deaths divided by the number of participants. Kaplan-Meier plot for time to death was presented by treatment group.

[1] = 600 mg (N = 47), Safety population
[2] = 600 mg (N = 47), Safety population, corresponds to worsening of COVID-19
[3] = 600 mg, Safety population (N = 47)
[4] = 600 mg, Study day 0, Safety population
[5] = 600 mg, Study day 13, Safety population
[6] = 600 mg, Study day 15, Safety population
[7] = 600 mg, Study day 27, Safety population
[8] = 600 mg, Study day 28, Safety population
[9] = 600 mg, Study day 29, Safety population
[10] = 600 mg, Study day 30, Safety population
[11] = 600 mg, Study day 31, Safety population
[12] = 600 mg, Study day 33, Safety population
[13] = 600 mg, Study day 42, Safety population
[14] = 600 mg, Study day 60, Safety population
[15] = post-treatment period, 600 mg (N = 47), safety population
[16] = pre-treatment emergent adverse events, 600 mg group (N = 47), safety population

## CN1C(=O)[C@@H](NC(=O)c2nnc(Cc3ccccc3)[nH]2)COc2cccnc21 [RIPK1 Inhibitor, (S)-5-benzyl-N-(5-methyl-4-oxo-2,3,4,5-tetrahydropyrido[3,2-b][1,4]oxazepin-3-yl)-4H-1,2,4-triazole-3-carboxamide]
[1]
  TEAE, PT Pulmonary embolism: percentage of participants: (2.1) %
  TEAE, PT Pyrexia: number of participants: 1
  TEAE, PT Pyrexia: percentage of participants: (2.1) %
  TEAE, PT Renal cyst: number of participants: 0
  TEAE, PT Renal impairment: number of participants: 0
  TEAE, PT Respiratory disorder: number of participants: 1
  TEAE, PT Respiratory disorder: percentage of participants: (2.1) %
  TEAE, PT Respiratory failure: number of participants: 0
  TEAE, PT Subcutaneous emphysema: number of participants: 0
  TEAE, PT Tachycardia paroxysmal: number of participants: 0
  TEAE, PT Tracheitis: number of participants: 0
  TEAE, PT Tracheobronchitis: number of participants: 0
  TEAE, PT Transaminases increased: number of participants: 0
  TEAE, PT Venous thrombosis limb: number of participants: 1
  TEAE, PT Venous thrombosis limb: percentage of participants: (2.1) %
  TEAE, PT Vessel puncture site phlebitis: number of participants: 1
  TEAE, PT Vessel puncture site phlebitis: percentage of participants: (2.1) %
  TEAE, PT Vomiting: number of participants: 0
  TEAE, SOC BLOOD AND LYMPHATIC SYSTEM DISORDERS: number of participants: 1
  TEAE, SOC BLOOD AND LYMPHATIC SYSTEM DISORDERS: percentage of participants: (2.1) %
  TEAE, SOC CARDIAC DISORDERS: number of participants: 0
  TEAE, SOC GASTROINTESTINAL DISORDERS: number of participants: 6
  TEAE, SOC GASTROINTESTINAL DISORDERS: percentage of participants: (12.8) %
  TEAE, SOC GENERAL DISORDERS AND ADMINISTRATION SITE CONDITIONS: number of participants: 6
  TEAE, SOC GENERAL DISORDERS AND ADMINISTRATION SITE CONDITIONS: percentage of participants: (12.8) %
  TEAE, SOC HEPATOBILIARY DISORDERS: number of participants: 0
  TEAE, SOC IMMUNE SYSTEM DISORDERS: number of participants: 1
  TEAE, SOC IMMUNE SYSTEM DISORDERS: percentage of participants: (2.1) %
  TEAE, SOC INFECTIONS AND INFESTATIONS: number of participants: 4
  TEAE, SOC INFECTIONS AND INFESTATIONS: percentage of participants: (8.5) %
  TEAE, SOC INJURY, POISONING AND PROCEDURAL COMPLICATIONS: number of participants: 1
  TEAE, SOC INJURY, POISONING AND PROCEDURAL COMPLICATIONS: percentage of participants: (2.1) %
  TEAE, SOC INVESTIGATIONS: number of participants: 6
  TEAE, SOC INVESTIGATIONS: percentage of participants: (12.8) %
  TEAE, SOC METABOLISM AND NUTRITION DISORDERS: number of participants: 3
  TEAE, SOC METABOLISM AND NUTRITION DISORDERS: percentage of participants: (6.4) %
  TEAE, SOC MUSCULOSKELETAL AND CONNECTIVE TISSUE DISORDERS: number of participants: 1
  TEAE, SOC MUSCULOSKELETAL AND CONNECTIVE TISSUE DISORDERS: percentage of participants: (2.1) %
  TEAE, SOC NERVOUS SYSTEM DISORDERS: number of participants: 0
  TEAE, SOC PSYCHIATRIC DISORDERS: number of participants: 1
  TEAE, SOC PSYCHIATRIC DISORDERS: percentage of participants: (2.1) %
  TEAE, SOC RENAL AND URINARY DISORDERS: number of participants: 0
  TEAE, SOC REPRODUCTIVE SYSTEM AND BREAST DISORDERS: number of participants: 0
  TEAE, SOC RESPIRATORY, THORACIC AND M[…]: number of participants: 4
  TEAE, SOC RESPIRATORY, THORACIC AND M[…]: percentage of participants: (8.5) %
  TEAE, SOC SKIN AND SUBCUTANEOUS TISSUE DISORDERS: number of participants: 0
  TEAE, SOC VASCULAR DISORDERS: number of participants: 3
  TEAE, SOC VASCULAR DISORDERS: percentage of participants: (6.4) %
[2]
  TEAE, PT Condition aggravated: number of participants: 4
  TEAE, PT Condition aggravated: percentage of participants: (8.5) %
[3]
  deaths up to Day 28: 4.3%
  number of AESIs: 6 AESIs
  number of TEAEs considered as IMP-related by the Investigator: 2 TEAEs
  number of TEAEs leading to treatment discontinuation: 5 TEAEs
  number of serious TEAEs: 8 serious TEAEs
  participants with AESI, PT Anaemia: 0 n
  participants with AESI, PT Transaminases increased: 0 n
  participants with AESI, SOC BLOOD AND LYMPHATIC SYSTEM DISORDERS: 0 n
  participants with post-treatment AE leading to death: 1 participant
600 mg, Safety population (N = 47), on Day 11 and Day 15
  deaths up to Day 28: 2 participants
[4]
  Cumulative incidence rate of deaths: 0
  Number of deaths: 0
[5]
  Cumulative incidence rate of deaths: 0.02
  Number of deaths: 1
[6]
  Cumulative incidence rate of deaths: 0.04
  Number of deaths: 1
[7]
  Cumulative incidence rate of deaths: 0.04
  Number of deaths: 0
[8]
  Cumulative incidence rate of deaths: 0.04
  Number of deaths: 0
[9]
  Cumulative incidence rate of deaths: 0.04
  Number of deaths: 0
[10]
  Cumulative incidence rate of deaths: 0.04
  Number of deaths: 0
[11]
  Cumulative incidence rate of deaths: 0.04
  Number of deaths: 0
[12]
  Cumulative incidence rate of deaths: 0.04
  Number of deaths: 0
[13]
  Cumulative incidence rate of deaths: 0.04
  Number of deaths: 0
[14]
  Cumulative incidence rate of deaths: 0.04
  Number of deaths: 0
600 mg, abnormal ALT and AST levels
  participants with post-treatment AESI of transaminase increase: One
600 mg, from an abnormal baseline
  participants with PCSAs of elevated glucose levels considered as a TEAE of hyperglycemia: One
Daily doses over 15 days, severe COVID-19, with standard of care
  overall safety and tolerability as compared to placebo: generally safe and well tolerated
[15]
  Participants with any post-treatment AE: 6 (12.8) n (%)
  Participants with any post-treatment AE leading to death: 1 (2.1) n (%)
  Participants with any post-treatment SAE: 1 (2.1) n (%)
  Participants with any post-treatment related to the compound: 0 n (%)
  Participants with severe post-treatment AE: 1 (2.1) n (%)
[16]
  Participants with any pre-treatment AE: 2 (4.3) n (%)
  Participants with any pre-treatment AE leading to death: 0 n (%)
  Participants with any pre-treatment SAE: 1 (2.1) n (%)
  Participants with severe pre-treatment AE: 1 (2.1) n (%)
